Data published in US10150728B2, “Alkylene derivatives” (Shionogi & Co., Ltd., priority 2013, dated 2018).

Biological target: recombinant human ACC2 (Homo sapiens (Human), UniProt O00763)
Test: Measurement of inhibitory activity on human ACC2 (MALDI-TOF MS, acetyl CoA to malonyl CoA conversion)
Format: biochemical
Conditions: Tables 155-159
Method in brief: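 His-tagged human ACC2 (residues 27–2458) from baculovirus-infected Sf-9 cells was preincubated 1 h in pH 7.4 HEPES-KOH buffer with MgCl2, 6-10 mM potassium citrate, glutathione and BSA. Substrate solution held 1 mM ATP, 0.8 mM acetyl CoA and 25-50 mM bicarbonate. After 1–3 h at room temperature, malonyl CoA/(malonyl+acetyl CoA) was read by negative-mode MALDI-TOF MS; citrate, bicarbonate and time varied by enzyme lot.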

Sequence of recombinant human ACC2 (O00763 27-2458): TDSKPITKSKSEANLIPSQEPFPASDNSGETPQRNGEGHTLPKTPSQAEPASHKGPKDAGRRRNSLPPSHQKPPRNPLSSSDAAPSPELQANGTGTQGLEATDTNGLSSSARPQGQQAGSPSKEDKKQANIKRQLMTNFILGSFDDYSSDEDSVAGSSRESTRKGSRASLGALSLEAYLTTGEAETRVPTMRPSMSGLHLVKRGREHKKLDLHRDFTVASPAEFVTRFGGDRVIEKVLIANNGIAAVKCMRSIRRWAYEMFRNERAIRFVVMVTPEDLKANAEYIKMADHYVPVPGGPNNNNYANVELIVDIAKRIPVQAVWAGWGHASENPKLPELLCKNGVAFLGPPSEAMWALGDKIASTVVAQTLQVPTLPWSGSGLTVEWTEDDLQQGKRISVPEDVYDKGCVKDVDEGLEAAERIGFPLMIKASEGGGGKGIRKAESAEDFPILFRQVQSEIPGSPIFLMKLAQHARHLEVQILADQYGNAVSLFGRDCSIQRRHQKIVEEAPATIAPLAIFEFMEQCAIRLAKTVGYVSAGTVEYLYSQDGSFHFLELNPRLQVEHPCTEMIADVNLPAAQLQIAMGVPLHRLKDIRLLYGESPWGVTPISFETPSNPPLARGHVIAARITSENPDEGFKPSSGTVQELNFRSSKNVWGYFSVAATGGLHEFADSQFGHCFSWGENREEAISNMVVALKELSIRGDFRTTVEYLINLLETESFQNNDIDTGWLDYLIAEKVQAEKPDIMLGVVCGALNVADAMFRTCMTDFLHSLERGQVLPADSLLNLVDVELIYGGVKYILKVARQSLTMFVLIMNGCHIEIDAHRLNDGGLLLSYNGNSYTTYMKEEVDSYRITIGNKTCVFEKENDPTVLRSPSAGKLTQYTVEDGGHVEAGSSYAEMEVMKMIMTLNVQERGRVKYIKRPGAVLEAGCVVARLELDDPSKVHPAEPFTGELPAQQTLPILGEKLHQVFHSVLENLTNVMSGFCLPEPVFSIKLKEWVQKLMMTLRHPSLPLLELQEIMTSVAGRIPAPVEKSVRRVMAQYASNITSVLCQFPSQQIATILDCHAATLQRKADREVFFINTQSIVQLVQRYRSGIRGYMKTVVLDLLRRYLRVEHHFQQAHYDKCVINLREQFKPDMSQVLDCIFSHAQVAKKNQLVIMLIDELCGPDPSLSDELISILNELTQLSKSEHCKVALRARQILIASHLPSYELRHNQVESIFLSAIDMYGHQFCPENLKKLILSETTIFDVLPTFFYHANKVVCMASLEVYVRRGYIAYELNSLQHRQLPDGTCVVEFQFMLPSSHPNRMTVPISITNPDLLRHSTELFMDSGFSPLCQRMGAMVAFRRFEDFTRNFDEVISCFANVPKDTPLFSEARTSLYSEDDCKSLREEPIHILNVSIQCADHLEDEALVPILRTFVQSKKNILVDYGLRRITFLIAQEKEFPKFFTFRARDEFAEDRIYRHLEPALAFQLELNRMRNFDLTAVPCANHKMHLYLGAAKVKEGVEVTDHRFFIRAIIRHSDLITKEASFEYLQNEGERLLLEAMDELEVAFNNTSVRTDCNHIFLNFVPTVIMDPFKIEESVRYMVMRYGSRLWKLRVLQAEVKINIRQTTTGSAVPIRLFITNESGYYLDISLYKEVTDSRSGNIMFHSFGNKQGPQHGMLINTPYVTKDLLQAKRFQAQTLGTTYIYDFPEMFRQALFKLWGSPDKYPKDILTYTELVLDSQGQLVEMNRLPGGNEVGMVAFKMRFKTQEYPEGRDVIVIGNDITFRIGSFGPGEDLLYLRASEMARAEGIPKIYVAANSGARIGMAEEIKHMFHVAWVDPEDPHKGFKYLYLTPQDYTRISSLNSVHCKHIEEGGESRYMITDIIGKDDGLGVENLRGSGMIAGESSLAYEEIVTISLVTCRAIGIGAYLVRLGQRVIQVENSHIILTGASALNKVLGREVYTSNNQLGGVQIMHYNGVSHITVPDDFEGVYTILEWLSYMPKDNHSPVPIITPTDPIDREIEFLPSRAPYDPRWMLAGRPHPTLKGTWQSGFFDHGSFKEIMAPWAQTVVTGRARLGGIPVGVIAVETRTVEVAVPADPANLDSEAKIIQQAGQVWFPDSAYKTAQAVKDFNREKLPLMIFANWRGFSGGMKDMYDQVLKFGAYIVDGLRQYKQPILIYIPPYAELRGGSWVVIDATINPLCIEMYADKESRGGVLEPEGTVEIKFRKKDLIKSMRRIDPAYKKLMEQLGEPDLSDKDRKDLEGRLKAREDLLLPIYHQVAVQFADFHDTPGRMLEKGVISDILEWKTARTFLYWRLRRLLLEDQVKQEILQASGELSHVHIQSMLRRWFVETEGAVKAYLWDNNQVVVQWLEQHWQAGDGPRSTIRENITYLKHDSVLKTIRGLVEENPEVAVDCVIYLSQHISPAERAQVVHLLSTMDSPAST

| SMILES | IC50 |
| --- | --- |
| CC(=O)N[C@@H](C)CO[C@H]1C[C@](F)(COc2ccc3nc(OCC(C)(F)F)sc3n2)C1 [Compound I-203] | 0.048 µM |
| CC(=O)N[C@@H](C)CO[C@H]1C[C@](F)(COc2ccc3nc(Oc4ccc(F)cc4)sc3n2)C1 [Compound I-204] | 0.113 µM |
| C[C@@H](CO[C@H]1C[C@H](COc2ccc3nc(OCC(F)F)sc3n2)C1)NC(N)=O [Compound I-205] | 0.025 µM |
| C[C@@H](CO[C@H]1C[C@H](COc2ccc3nc(OCC(F)F)sc3n2)C1)NC(=O)O [Compound I-206] | 0.079 µM |
| C[C@@H](CO[C@H]1C[C@H](COc2ccc3nc(OCC(F)F)sc3n2)C1)NC(=O)C(F)(F)F [Compound I-207] | 0.011 µM |
| CC(=O)N[C@@H](C)CO[C@H]1CC[C@H](Oc2ccc3nc(N4CC(F)(F)C4)sc3n2)CC1 [Compound I-208] | 0.008 µM |
| CC(=O)N[C@@H](C)CO[C@H]1CC[C@H](Oc2ccc3nc(OC(C)C)sc3n2)CC1 [Compound I-209] | 0.012 µM |
| CCOc1nc2cnc(O[C@H]3CC[C@H](OC[C@H](C)NC(C)=O)CC3)c(F)c2s1 [Compound I-210] | 0.006 µM |
| CC(=O)N[C@@H](C)CO[C@H]1C[C@H](COc2ccc3nc(OCC4(C)COC4)sc3n2)C1 [Compound I-211] | 0.097 µM |
| CCOc1nc2cc(Cl)c(OC[C@H]3C[C@H](OC[C@H](C)NC(C)=O)C3)nc2s1 [Compound I-212] | 0.017 µM |
| CC(=O)N[C@@H](C)CO[C@H]1C[C@H](COc2nc3sc(OCC(F)F)nc3cc2Cl)C1 [Compound I-213] | 0.028 µM |
| CCOc1nc2c(Cl)c(F)c(OC[C@H]3C[C@H](OC[C@H](C)NC(C)=O)C3)nc2s1 [Compound I-214] | 0.039 µM |
| CC(=O)N[C@@H](C)CO[C@H]1C[C@H](COc2ccc3nc(N4CC(F)(F)C4)sc3n2)C1 [Compound I-215] | 0.021 µM |
| CCOc1nc2ccc(OC[C@H]3C[C@@H](OC[C@H](C)NC(C)=O)C3)nc2s1 [Compound I-216] | 0.008 µM |
| CC(=O)N[C@@H](C)CO[C@H]1C[C@@H](COc2ccc3nc(OCC(F)F)sc3n2)C1 [Compound I-217] | 0.008 µM |
| CC(=O)N[C@@H](C)CO[C@H]1C[C@H](COc2ccc3nc(OC4CC(F)(F)C4)sc3n2)C1 [Compound I-218] | 0.008 µM |
| CC(=O)N[C@@H](C)CO[C@H]1CC[C@H](Oc2cc3sc(OC4CC(F)(F)C4)nc3cn2)CC1 [Compound I-219] | 0.004 µM |
| CC(=O)N[C@@H](C)CO[C@H]1CC[C@H](Oc2cc3sc(OCC4CC4(F)F)nc3cn2)CC1 (stereo partly shown) [Compound I-220] | 0.009 µM |
| CC(=O)N[C@@H](C)CO[C@H]1CC[C@H](Oc2cc3sc(OCc4ccc(F)cc4)nc3cn2)CC1 [Compound I-221] | 0.172 µM |
| CC(=O)N[C@@H](C)CO[C@H]1CC[C@H](Oc2cc3sc(OCC4(F)COC4)nc3cn2)CC1 [Compound I-222] | 0.246 µM |
| CC(=O)N[C@@H](C)CO[C@H]1CC[C@H](Oc2cc3sc(OC(C)CF)nc3cn2)CC1 (stereo partly shown) [Compound I-223] | 0.048 µM |
| CC(=O)N[C@@H](C)CO[C@H]1CC[C@H](Oc2cc3sc(OC4CC4)nc3cn2)CC1 [Compound I-224] | 0.034 µM |
| CCOc1nc2ccc(OC[C@]3(F)C[C@H](OC[C@H](C)NC(C)=O)C3)nc2s1 [Compound I-225] | 0.048 µM |
| CC(=O)N[C@@H](C)CO[C@H]1C[C@@](F)(COc2ccc3nc(OCC(F)F)sc3n2)C1 [Compound I-226] | 0.103 µM |

| SMILES | IC50 |
| --- | --- |
| CC(=O)N[C@@H](C)CO[C@H]1C[C@H](COc2ccc3nc(N4CCC(F)(F)CC4)sc3n2)C1 [Compound I-227] | 0.036 µM |
| CC(=O)N[C@@H](C)CO[C@H]1C[C@H](COc2ccc3nc(N4CCC(F)(F)C4)sc3n2)C1 [Compound I-228] | 0.027 µM |
| CC(=O)N[C@@H](C)CO[C@H]1C[C@H](COc2ccc3nc(N4CCOCC4)sc3n2)C1 [Compound I-229] | 0.113 µM |
| CCN(C)c1nc2ccc(OC[C@H]3C[C@H](OC[C@H](C)NC(C)=O)C3)nc2s1 [Compound I-230] | 0.054 µM |
| CC(=O)N[C@@H](C)CO[C@H]1C[C@H](COc2ccc3nc(N(C)C)sc3n2)C1 [Compound I-231] | 0.183 µM |
| CCOc1nc2ccc(O[C@H]3CC[C@H](OC[C@H](CC)NC(C)=O)CC3)c(F)c2s1 [Compound I-232] | 0.021 µM |
| CCOc1nc2ccc(OC[C@H]3C[C@H](OC[C@H](CC)NC(C)=O)C3)c(F)c2s1 [Compound I-233] | 0.084 µM |
| CC(=O)N[C@@H](C)CO[C@H]1CC[C@H](Oc2ncc3nc(N4CCC4)sc3c2F)CC1 [Compound I-234] | 0.008 µM |
| CC(=O)N[C@@H](C)CO[C@H]1CC[C@H](Oc2ncc3nc(N4CC(F)C4)sc3c2F)CC1 [Compound I-235] | 0.022 µM |
| CC(=O)N[C@@H](C)CO[C@H]1CC[C@H](Oc2ccc3nc(N4CCCC(F)(F)C4)sc3c2F)CC1 [Compound I-236] | 0.102 µM |
| CC(=O)N[C@@H](C)CO[C@H]1CC[C@H](Oc2ccc3nc(N4CCC4c4ccccc4)sc3c2F)CC1 (stereo partly shown) [Compound I-237] | 0.891 µM |
| CC(=O)N[C@@H](C)CO[C@H]1CC[C@H](Oc2ncc3nc(OC4CC4)sc3c2F)CC1 [Compound I-238] | 0.004 µM |
| CC(=O)N[C@@H](C)CO[C@H]1CC[C@H](Oc2ncc3nc(OCC(F)F)sc3c2F)CC1 [Compound I-239] | 0.008 µM |
| CC(=O)N[C@@H](C)CO[C@H]1CC[C@H](Oc2ncc3nc(OC(C)C)sc3c2F)CC1 [Compound I-240] | 0.007 µM |
| CC(=O)N[C@@H](C)CO[C@H]1CC[C@H](Oc2ncc3nc(N4CC(F)(F)C4)sc3c2F)CC1 [Compound I-241] | 0.173 µM |
| CC(=O)N[C@@H](C)CO[C@H]1C[C@H](COc2ccc3nc(OC4CCCC4)sc3n2)C1 [Compound I-242] | 0.007 µM |
| CC(=O)N[C@@H](C)CO[C@H]1C[C@H](COc2ccc3nc(OC4CCOCC4)sc3n2)C1 [Compound I-243] | 0.028 µM |
| CC(=O)N[C@@H](C)CO[C@H]1C[C@H](COc2ccc3nc(OC4CCCCC4)sc3n2)C1 [Compound I-244] | 0.007 µM |
| CC(=O)N[C@@H](C)CO[C@H]1C[C@H](COc2ccc3nc(OC4CCC4)sc3n2)C1 [Compound I-245] | 0.004 µM |
| CC(=O)N[C@@H](C)CO[C@H]1C[C@H](COc2ccc3nc(O[C@H]4CCOC4)sc3n2)C1 [Compound I-246] | 0.047 µM |
| CC(=O)N[C@@H](C)CO[C@H]1C[C@H](COc2ccc3nc(O[C@@H]4CCOC4)sc3n2)C1 [Compound I-247] | 0.017 µM |
| CC(=O)N[C@@H](C)CO[C@H]1C[C@H](COc2ccc3nc(OC4CCSCC4)sc3n2)C1 [Compound I-248] | 0.009 µM |
| CC(=O)N[C@@H](C)CO[C@H]1C[C@H](COc2ccc3nc(OC4CCSC4)sc3n2)C1 (stereo partly shown) [Compound I-249] | 0.008 µM |
| COc1nc2ccc(OC[C@H]3C[C@H](OC[C@H](C)NC(C)=O)C3)nc2s1 [Compound I-250] | 0.031 µM |

| SMILES | IC50 |
| --- | --- |
| CC(=O)N[C@@H](C)CO[C@H]1C[C@@H](COc2ccc3nc(N4CC(F)(F)C4)sc3n2)C1 [Compound I-251] | 0.022 µM |
| CC(=O)N[C@@H](C)CO[C@H]1CC[C@H](Oc2ncc3nc(OC4CC(F)(F)C4)sc3c2F)CC1 [Compound I-252] | 0.008 µM |
| CC(=O)N[C@@H](C)CO[C@H]1CC[C@H](Oc2ncc3nc(OCC4CC4(F)F)sc3c2F)CC1 (stereo partly shown) [Compound I-253] | 0.011 µM |
| CC(=O)N[C@@H](C)CO[C@H]1C[C@H](COc2ccc3nc(N4CC(F)(F)C(F)(F)C4)sc3n2)C1 [Compound I-254] | 0.02 µM |
| CC(=O)N[C@@H](C)CO[C@H]1C[C@H](COc2ccc3nc(N4CCC4)sc3n2)C1 [Compound I-255] | 0.024 µM |
| CC(=O)N[C@@H](C)CO[C@H]1C[C@H](COc2ccc3nc(N4CC(F)C4)sc3n2)C1 [Compound I-256] | 0.039 µM |
| CC(=O)N[C@@H](C)CO[C@H]1C[C@H](COc2ccc3nc(N4CCCC4)sc3n2)C1 [Compound I-257] | 0.014 µM |
| CC(=O)N[C@@H](C)CO[C@H]1C[C@H](COc2cc(C)c3nc(OC4CC4)sc3n2)C1 [Compound I-258] | 0.099 µM |
| CC(=O)N[C@@H](C)CO[C@H]1CC[C@H](Oc2cc3sc(O[C@H]4CCOC4)nc3cn2)CC1 [Compound I-259] | 0.086 µM |
| CC(=O)N[C@@H](C)CO[C@H]1CC[C@H](Oc2cc3sc(O[C@@H]4CCOC4)nc3cn2)CC1 [Compound I-260] | 0.102 µM |
| CC(=O)N[C@@H](C)CO[C@H]1CC[C@H](Oc2cc3sc(OCC4(C)CC4)nc3cn2)CC1 [Compound I-261] | 0.017 µM |
| CC(=O)N[C@@H](C)CO[C@H]1CC[C@H](Oc2cc3sc(OC[C@@H](C)F)nc3cn2)CC1 [Compound I-262] | 0.053 µM |
| CC(=O)N[C@@H](C)CO[C@H]1CC[C@H](Oc2cc3sc(OCC(C)(C)C#N)nc3cn2)CC1 [Compound I-263] | 0.862 µM |
| CC(=O)N[C@@H](C)CO[C@H]1CC[C@H](Oc2cc3sc(OCC4(C#N)CC4)nc3cn2)CC1 [Compound I-264] | 0.372 µM |
| CC(=O)N[C@@H](C)CO[C@H]1C[C@H](COc2ccc3nc(N4CCCCC4)sc3n2)C1 [Compound I-265] | 0.016 µM |
| CC(=O)N[C@@H](C)CO[C@H]1C[C@H](COc2nc3sc(N4CCC4)nc3cc2F)C1 [Compound I-266] | 0.036 µM |
| CC(=O)N[C@@H](C)CO[C@H]1C[C@H](COc2nc3sc(N4CC(F)C4)nc3cc2F)C1 [Compound I-267] | 0.058 µM |
| CC(=O)N[C@@H](C)CO[C@H]1C[C@H](COc2nc3sc(N4CC(F)(F)C4)nc3cc2F)C1 [Compound I-268] | 0.042 µM |
| CC(=O)N[C@@H](C)CO[C@H]1C[C@H](COc2ccc3nc(N4CCC4)sc3c2F)C1 [Compound I-269] | 0.125 µM |
| CC(=O)N[C@@H](C)CO[C@H]1C[C@H](COc2ccc3nc(N4CCCC4)sc3c2F)C1 [Compound I-270] | 0.116 µM |
| CC(=O)N[C@@H](C)CO[C@H]1CC[C@H](Oc2cc3sc(O[C@H]4C[C@@H](C#N)C4)nc3cn2)CC1 [Compound I-271] | 0.083 µM |
| C[C@@H](CO[C@H]1CC[C@H](Oc2ncc3nc(OC4CC4)sc3c2F)CC1)NC(=O)CO [Compound I-272] | 0.123 µM |
